For 40 compounds, EC50 results are on record in US12528801B2 (Givaudan SA, priority 2019, dated 2026).

Some results are limits rather than exact numbers.

In general, EC50 refers to the concentration that produces a half-maximal response.

T1 sequence (Q7Z2W7 whole entry): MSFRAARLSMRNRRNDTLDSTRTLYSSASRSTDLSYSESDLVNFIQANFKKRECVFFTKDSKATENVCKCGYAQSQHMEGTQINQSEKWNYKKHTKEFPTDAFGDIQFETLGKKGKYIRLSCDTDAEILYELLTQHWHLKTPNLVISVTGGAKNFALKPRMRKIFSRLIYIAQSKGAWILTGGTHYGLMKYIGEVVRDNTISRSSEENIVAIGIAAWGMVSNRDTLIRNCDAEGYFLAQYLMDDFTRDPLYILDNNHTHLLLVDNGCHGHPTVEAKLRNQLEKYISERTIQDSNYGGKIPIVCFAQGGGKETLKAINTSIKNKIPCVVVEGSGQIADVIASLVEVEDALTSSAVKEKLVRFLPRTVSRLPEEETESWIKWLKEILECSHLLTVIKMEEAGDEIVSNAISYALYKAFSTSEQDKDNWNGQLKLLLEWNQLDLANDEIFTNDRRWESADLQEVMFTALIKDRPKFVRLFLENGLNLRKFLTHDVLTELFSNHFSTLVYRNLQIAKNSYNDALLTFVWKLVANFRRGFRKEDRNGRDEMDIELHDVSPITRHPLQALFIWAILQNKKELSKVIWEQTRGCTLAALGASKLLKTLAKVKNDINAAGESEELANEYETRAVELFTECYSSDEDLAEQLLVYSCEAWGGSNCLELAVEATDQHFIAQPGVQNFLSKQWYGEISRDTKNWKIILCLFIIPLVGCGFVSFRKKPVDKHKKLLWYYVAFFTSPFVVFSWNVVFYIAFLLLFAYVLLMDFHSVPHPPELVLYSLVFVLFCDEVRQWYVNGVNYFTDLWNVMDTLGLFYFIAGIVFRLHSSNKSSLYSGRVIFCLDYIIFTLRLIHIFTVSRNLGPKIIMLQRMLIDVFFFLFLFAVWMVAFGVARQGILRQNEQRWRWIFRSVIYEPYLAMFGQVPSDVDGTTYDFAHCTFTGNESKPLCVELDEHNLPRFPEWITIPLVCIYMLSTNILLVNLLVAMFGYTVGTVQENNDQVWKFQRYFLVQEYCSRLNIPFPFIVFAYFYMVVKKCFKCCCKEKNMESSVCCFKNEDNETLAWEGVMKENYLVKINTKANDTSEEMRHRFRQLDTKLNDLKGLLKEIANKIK

This experiment has as its target T1, hTRPM8 (Homo sapiens, UniProt Q7Z2W7).
T1 construct: expressed in transfected cells
Put plainly: Assay on TRPM8 modulators: calcium imaging (Fluo-4, Flexstation) in HEK293 cell line stably expressing hTRPM8. It is filed as cell-based. The settings on record: HEK293 cells stably expressing hTRPM8; calcium influx, Fluo-4, Flexstation 3; sigmoidal dose-response fit. The gist of the method: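 HEK293 cells stably expressing hTRPM8 were loaded with Fluo-4 AM plus probenecid and kept in HEPES buffer, pH 7.4. Calcium influx to serially diluted compounds was recorded for 120 s. Maximal activation was referenced to solvent control and 31.6 μM menthol, with EC values from sigmoidal dose-response fits.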
For the compound `CSC(C)C(=O)N1CCCCC1c1nc(-c2csc(C)c2)c[nH]1` (stereo not shown) [Compound 110, 2-(methylthio)-1-(2-(4-(5-methylthiophen-3-yl)-1H-imidazol-2-yl)piperidin-1-yl)propan-1-one], the concentration for a half-maximal effect (EC50) was under 50 nM.

On to `CSC(C)C(=O)N1CCCCC1c1nc(-c2cccc(C)c2)c[nH]1` (stereo not shown) [Compound 111, 2-(methylthio)-1-(2-(4-(m-tolyl)-1H-imidazol-2-yl)piperidin-1-yl)propan-1-one], for which the concentration for a half-maximal effect (EC50) is 50 to 300 nM.

As for `CSC(C)C(=O)N1CCCCC1c1nc(-c2ccccc2C)c[nH]1` (stereo not shown) [Compound 112, 2-(methylthio)-1-(2-(4-(o-tolyl)-1H-imidazol-2-yl)piperidin-1-yl)propan-1-one], the EC50 was 50 to 300 nM.

In the case of `CSC(C)C(=O)N1CCCCC1c1nc(-c2cccnc2)c[nH]1` (stereo not shown) [Compound 113, 2-(methylthio)-1-(2-(4-(pyridin-3-yl)-1H-imidazol-2-yl)piperidin-1-yl)propan-1-one], the EC50 is 300 to 1000 nM.

As to `CSC(C)C(=O)N1CCCCC1c1nc(-c2ccncc2)c[nH]1` (stereo not shown) [Compound 114, 2-(methylthio)-1-(2-(4-(pyridin-4-yl)-1H-imidazol-2-yl)piperidin-1-yl)propan-1-one], the concentration for a half-maximal effect (EC50) lay within 300 to 1000 nM.

As to `CSC(C)C(=O)N1CCCCC1c1nc(-c2cncnc2)c[nH]1` (stereo not shown) [Compound 115, 2-(methylthio)-1-(2-(4-(pyrimidin-5-yl)-1H-imidazol-2-yl)piperidin-1-yl)propan-1-one], the concentration giving a half-maximal response (EC50) was 1000 to 35000 nM.

Turning to `CSC(C)C(=O)N1CCCCC1c1nc(-c2ccc3nccnc3c2)c[nH]1` (stereo not shown) [Compound 116, 2-(methylthio)-1-(2-(4-(quinoxalin-6-yl)-1H-imidazol-2-yl)piperidin-1-yl)propan-1-one], the EC50 lay within 300 to 1000 nM.

As to `CSC(C)C(=O)N1CCCCC1c1nc(-c2ccsc2)c[nH]1` (stereo not shown) [Compound 117, 2-(methylthio)-1-(2-(4-(thiophen-3-yl)-1H-imidazol-2-yl)piperidin-1-yl)propan-1-one], the EC50 was in the range of 50 to 300 nM.

Take `CSCC(=O)N1CCCCC1c1nc(-c2ccccc2)c[nH]1` (stereo not shown) [Compound 118, 2-(methylthio)-1-(2-(4-phenyl-1H-imidazol-2-yl)piperidin-1-yl)ethan-1-one]: the concentration giving a half-maximal response (EC50) is 300 to 1000 nM.

Consider `CSC(C)C(=O)N1CCCCC1c1ncc(-c2ccccc2C(F)(F)F)[nH]1` (stereo not shown) [Compound 119, 2-(methylthio)-1-(2-(5-(2-(trifluoromethyl)phenyl)-1H-imidazol-2-yl)piperidin-1-yl)propan-1-one], for which the EC50 fell in the range of 300 to 1000 nM.

In the case of `CSC(C)C(=O)N1CCCCC1c1ncc(-c2ccc(F)c(F)c2F)[nH]1` (stereo not shown) [Compound 120, 2-(methylthio)-1-(2-(5-(2,3,4-trifluorophenyl)-1H-imidazol-2-yl)piperidin-1-yl)propan-1-one], the EC50 was under 50 nM.

Take `CSC(C)C(=O)N1CCCCC1c1ncc(-c2cc(F)c(F)cc2F)[nH]1` (stereo not shown) [Compound 121, 2-(methylthio)-1-(2-(5-(2,4,5-trifluorophenyl)-1H-imidazol-2-yl)piperidin-1-yl)propan-1-one]: the EC50 is under 50 nM.

Regarding `CSC(C)C(=O)N1CCCCC1c1ncc(-c2cccc(C(F)(F)F)c2)[nH]1` (stereo not shown) [Compound 122, 2-(methylthio)-1-(2-(5-(3-(trifluoromethyl)phenyl)-1H-imidazol-2-yl)piperidin-1-yl)propan-1-one], the 50% effective concentration (EC50) is 50 to 300 nM.

For the compound `CSC(C)C(=O)N1CCCCC1c1ncc(-c2ccc(OC(F)(F)F)cc2)[nH]1` (stereo not shown) [Compound 123, 2-(methylthio)-1-(2-(5-(4-(trifluoromethoxy)phenyl)-1H-imidazol-2-yl)piperidin-1-yl)propan-1-one], the concentration for a half-maximal effect (EC50) is under 50 nM.

As for `CCCc1ccc(-c2cnc(C3CCCCN3C(=O)C(C)SC)[nH]2)cc1` (stereo not shown) [Compound 125, 2-(methylthio)-1-(2-(5-(4-propylphenyl)-1H-imidazol-2-yl)piperidin-1-yl)propan-1-one], the half-maximal effective concentration (EC50) was under 50 nM.

On to `C=Cc1ccc(-c2cnc(C3CCCCN3C(=O)C(C)SC)[nH]2)cc1` (stereo not shown) [Compound 126, 2-(methylthio)-1-(2-(5-(4-vinylphenyl)-1H-imidazol-2-yl)piperidin-1-yl)propan-1-one], for which the concentration giving a half-maximal response (EC50) is under 50 nM.

Consider `CSC(C)C(=O)N1CCCCC1c1nnc(-c2ccc(C)cc2)o1` (stereo not shown) [Compound 128, 2-(methylthio)-1-(2-(5-(p-tolyl)-1,3,4-oxadiazol-2-yl)piperidin-1-yl)propan-1-one], for which the 50% effective concentration (EC50) was 300 to 1000 nM.

With `CSC(C)C(=O)N1CCCCCC1c1ncc(-c2ccc(C)cc2)[nH]1` (stereo not shown) [Compound 129, 2-(methylthio)-1-(2-(5-(p-tolyl)-1H-imidazol-2-yl)azepan-1-yl)propan-1-one], the EC50 is under 50 nM.

On to `CSC(C)C(=O)N1CCCCC1c1nnc(-c2ccc(C)cc2)[nH]1` (stereo not shown) [Compound 131, 2-(methylthio)-1-(2-(5-(p-tolyl)-4H-1,2,4-triazol-3-yl)piperidin-1-yl)propan-1-one], for which the 50% effective concentration (EC50) was under 50 nM.

For `CSC(C)C(=O)N1CCCCC1c1cc(-c2ccc(C)cc2)on1` (stereo not shown) [Compound 132, 2-(methylthio)-1-(2-(5-(p-toly)isoxazol-3-yl)piperidin-1-yl)propan-1-one], the EC50 lay within 50 to 300 nM.

As for `CSC(C)C(=O)N1CCCCC1c1ncc(-c2ccc(C)cc2)o1` (stereo not shown) [Compound 133, 2-(methylthio)-1-(2-(5-(p-tolyl)oxazol-2-yl)piperidin-1-yl)propan-1-one], the EC50 was under 50 nM.

Regarding `CSC(C)C(=O)N1CCCCC1c1ncc(-c2ccc(C)cc2)s1` (stereo not shown) [Compound 134, 2-(methylthio)-1-(2-(5-(p-tolyl)thiazol-2-yl)piperidin-1-yl)propan-1-one], the EC50 was under 50 nM.

For `CSC(C)C(=O)N1CCC[C@@H]1c1ncc(-c2ccccc2)[nH]1` (stereo partly drawn) [Compound 136, 2-(methylthio)-1-((R)-2-(5-phenyl-1H-imidazol-2-yl)pyrrolidin-1-yl)propan-1-one], the concentration for a half-maximal effect (EC50) lay in the range of 1000 to 35000 nM.

With `CSC(C)C(=O)N1CCCCC1c1nnc(-c2ccccc2)[nH]1` (stereo not shown) [Compound 137, 2-(methylthio)-1-(2-(5-phenyl-4H-1,2,4-triazol-3-yl)piperidin-1-yl)propan-1-one], the EC50 lay in the range of 50 to 300 nM.

Regarding `CSC(C)C(=O)N1CCCCC1c1ncc(-c2ccccc2)o1` (stereo not shown) [Compound 138, 2-(methylthio)-1-(2-(5-phenyloxazol-2-yl)piperidin-1-yl)propan-1-one], the concentration giving a half-maximal response (EC50) was 300 to 1000 nM.

Turning to `CSC(C)C(=O)N1CSCC1c1ncc(-c2ccc(C)cc2)[nH]1` (stereo not shown) [Compound 139, 2-(methylthio)-1-(4-(5-(p-tolyl)-1H-imidazol-2-yl)thiazolidin-3-yl)propan-1-one], the 50% effective concentration (EC50) was 50 to 300 nM.

`C=C(C)C(C)(C)C(=O)N1CCCCC1c1ncc(-c2ccc(C)cc2)[nH]1` (stereo not shown) [Compound 140, 2,2,3-trimethyl-1-(2-(5-(p-tolyl)-1H-imidazol-2-yl)piperidin-1-yl)but-3-en-1-one]: the EC50 was under 50 nM.

Take `Cc1ccc(-c2cnc(C3CCCCN3C(=O)C(C)(C)C(C)C)[nH]2)cc1` (stereo not shown) [Compound 141, 2,2,3-trimethyl-1-(2-(5-(p-tolyl)-1H-imidazol-2-yl)piperidin-1-yl)butan-1-one]: the half-maximal effective concentration (EC50) was under 50 nM.

Consider `C=CC(C)(C)C(=O)N1CCCCC1c1ncc(-c2ccc(C)cc2)[nH]1` (stereo not shown) [Compound 142, 2,2-dimethyl-1-(2-(5-(p-tolyl)-1H-imidazol-2-yl)piperidin-1-yl)but-3-en-1-one], for which the 50% effective concentration (EC50) was under 50 nM.

Regarding `CCC(C)(C)C(=O)N1CCCCC1c1ncc(-c2ccc(C)cc2)[nH]1` (stereo not shown) [Compound 143, 2,2-dimethyl-1-(2-(5-(p-tolyl)-1H-imidazol-2-yl)piperidin-1-yl)butan-1-one], the concentration for a half-maximal effect (EC50) was under 50 nM.

As to `COCC(OC)C(=O)N1CCCCC1c1nc(-c2ccccc2)c[nH]1` (stereo not shown) [Compound 144, 2,3-dimethoxy-1-(2-(4-phenyl-1H-imidazol-2-yl)piperidin-1-yl)propan-1-one], the EC50 is 1000 to 35000 nM.

On to `CC(C)C(C)C(=O)N1CCCCC1c1nc(-c2ccccc2)c[nH]1` (stereo not shown) [Compound 145, 2,3-dimethyl-1-(2-(4-phenyl-1H-imidazol-2-yl)piperidin-1-yl)butan-1-one], for which the EC50 fell in the range of 50 to 300 nM.

As to `CSC(C)C(=O)N1CCCCC1c1nc(-c2cc(F)c(C#N)cc2F)c[nH]1` (stereo not shown) [Compound 146, 2,5-difluoro-4-(2-(1-(2-(methylthio)propanoyl)piperidin-2-yl)-1H-imidazol-4-yl)benzonitrile], the EC50 was under 50 nM.

`Cc1ccc(-c2cnc(C3CCCCN3C(=O)C(C)N)[nH]2)cc1` (stereo not shown) [Compound 147, 2-amino-1-(2-(5-(p-toly)-1H-imidazol-2-yl)piperidin-1-yl)propan-1-one]: the 50% effective concentration (EC50) is 1000 to 35000 nM.

`CC(C(=O)N1CCCCC1c1nc(-c2ccccc2)c[nH]1)C1CCC1` (stereo not shown) [Compound 148, 2-cyclobutyl-1-(2-(4-phenyl-1H-imidazol-2-yl)piperidin-1-yl)propan-1-one]: the EC50 is 50 to 300 nM.

On to `CCOC(C(=O)N1CCCCC1c1nc(-c2ccccc2)c[nH]1)C1CCCC1` (stereo not shown) [Compound 149, 2-cyclopentyl-2-ethoxy-1-(2-(4-phenyl-1H-imidazol-2-yl)piperidin-1-yl)ethan-1-one], for which the EC50 fell in the range of 1000 to 35000 nM.

`O=C(CC1CC1)N1CCCCC1c1nc(-c2ccccc2)c[nH]1` (stereo not shown) [Compound 150, 2-cyclopropyl-1-(2-(4-phenyl-1H-imidazol-2-yl)piperidin-1-yl)ethan-1-one]: the EC50 was in the range of 1000 to 35000 nM.

Regarding `CC(C(=O)N1CCCCC1c1nc(-c2ccccc2)c[nH]1)C1CC1` (stereo not shown) [Compound 151, 2-cyclopropyl-1-(2-(4-phenyl-1H-imidazol-2-yl)piperidin-1-yl)propan-1-one], the EC50 was 50 to 300 nM.

`COC(C(=O)N1CCCCC1c1nc(-c2ccccc2)c[nH]1)C1CC1` (stereo not shown) [Compound 152, 2-cyclopropyl-2-methoxy-1-(2-(4-phenyl-1H-imidazol-2-yl)piperidin-1-yl)ethan-1-one]: the EC50 was in the range of 300 to 1000 nM.

In the case of `CCOC(C)C(=O)N1CCCCC1c1ncc(-c2cccc(F)c2)[nH]1` (stereo not shown) [Compound 153, 2-ethoxy-1-(2-(5-(3-fluorophenyl)-1H-imidazol-2-yl)piperidin-1-yl)propan-1-one], the 50% effective concentration (EC50) was 1000 to 35000 nM.
